How the values were obtained:
Assay in all cases: relative viability (nuclei count vs DMSO), 5 days (fraction); higher = more cells survive
Erlotinib + Crizotinib = compound: C#Cc1cccc(Nc2ncnc3cc(OCCOC)c(OCCOC)cc23)c1 [Erlotinib] + C[C@@H](Oc1cc(-c2cnn(C3CCNCC3)c2)cnc1N)c1c(Cl)ccc(F)c1Cl [Crizotinib] (partner 1 µM)
Summary of the method: (§1)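 Relative viability equals treated-well nuclei counts divided by vehicle-well nuclei counts. Counts came from 4× images of lung cancer cell lines grown in 1536-well plates for 5 days after pin-tool dosing on the day after seeding. Dosing used one drug alone or a fixed anchor-drug dose plus five library-drug doses (not always all listed) in √10 steps, and values are medians of duplicate plates.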

AT9283 + Palbociclib = compound: O=C(Nc1c[nH]nc1-c1nc2ccc(CN3CCOCC3)cc2[nH]1)NC1CC1 [AT9283] + CC(=O)c1c(C)c2cnc(Nc3ccc(N4CCNCC4)cn3)nc2n(C2CCCC2)c1=O [Palbociclib] (partner 0.5 µM)
Summary of the method: as §1

Erlotinib + Pictilisib = compound: C#Cc1cccc(Nc2ncnc3cc(OCCOC)c(OCCOC)cc23)c1 [Erlotinib] + CS(=O)(=O)N1CCN(Cc2cc3nc(-c4cccc5[nH]ncc45)nc(N4CCOCC4)c3s2)CC1 [Pictilisib] (partner 1 µM)
Summary of the method: as §1

AT9283 + Phenformin = compound: O=C(Nc1c[nH]nc1-c1nc2ccc(CN3CCOCC3)cc2[nH]1)NC1CC1 [AT9283] + N=C(N)NC(=N)NCCc1ccccc1 [Phenformin] (partner 250 µM)
Summary of the method: as §1

AT9283 + Lapatinib = compound: O=C(Nc1c[nH]nc1-c1nc2ccc(CN3CCOCC3)cc2[nH]1)NC1CC1 [AT9283] + CS(=O)(=O)CCNCc1ccc(-c2ccc3ncnc(Nc4ccc(OCc5cccc(F)c5)c(Cl)c4)c3c2)o1 [Lapatinib] (partner 2 µM)
Summary of the method: as §1

Cell Line	relative viability (Erlotinib + Crizotinib; first compound 0.02 µM)	relative viability (Erlotinib + Crizotinib; first compound 0.2 µM)	relative viability (Erlotinib + Crizotinib; first compound 0.6325 µM)	relative viability (Erlotinib + Crizotinib; first compound 2 µM)	relative viability (AT9283 + Palbociclib; first compound 0.003 µM)	relative viability (AT9283 + Palbociclib; first compound 0.03 µM)	relative viability (AT9283 + Palbociclib; first compound 0.09487 µM)	relative viability (AT9283 + Palbociclib; first compound 0.3 µM)	relative viability (Erlotinib + Pictilisib; first compound 0.02 µM)	relative viability (Erlotinib + Pictilisib; first compound 0.2 µM)	relative viability (Erlotinib + Pictilisib; first compound 0.6325 µM)	relative viability (Erlotinib + Pictilisib; first compound 2 µM)	relative viability (AT9283 + Phenformin; first compound 0.003 µM)	relative viability (AT9283 + Phenformin; first compound 0.03 µM)	relative viability (AT9283 + Phenformin; first compound 0.09487 µM)	relative viability (AT9283 + Phenformin; first compound 0.3 µM)	relative viability (AT9283 + Lapatinib; first compound 0.003 µM)	relative viability (AT9283 + Lapatinib; first compound 0.03 µM)	relative viability (AT9283 + Lapatinib; first compound 0.09487 µM)	relative viability (AT9283 + Lapatinib; first compound 0.3 µM)
COR-L23	0.718	0.681	0.666	0.614	0.286	0.141	0.11	0.121	0.898	0.692	1.04	0.656	0.45	0.221	0.128	0.12	1	0.12	0.129	0.172
NCI-H1792	1	0.931	1.06	0.801	0.607	0.661	0.623	0.399	0.305	0.183	0.269	0.21	–	0.255	0.333	0.148	0.797	0.713	0.151	0.108
NCI-H520	0.683	0.9	0.987	0.68	0.238	0.2	0.142	0.127	0.262	0.279	0.335	0.298	0.572	0.284	0.243	0.174	0.77	0.295	0.21	0.196
NCI-H3122	0.287	0.262	0.258	0.241	0.187	0.208	0.169	0.153	0.576	0.614	–	0.598	0.359	0.334	0.203	0.138	1.07	0.964	0.446	0.328
LXF-289	0.818	0.828	0.761	0.711	0.608	0.647	0.254	0.152	0.775	–	0.798	0.704	0.528	0.447	0.0782	0.0825	0.901	0.691	0.163	0.135
NCI-H2126	1.04	0.892	0.776	0.662	0.341	0.35	0.365	0.272	0.505	0.396	0.4	0.379	0.511	0.575	0.365	0.264	0.748	0.737	0.66	0.296
SK-MES-1	1.06	0.725	0.524	0.38	0.365	0.311	0.255	0.2	0.287	0.245	0.258	0.22	0.748	0.595	0.318	0.243	0.427	0.547	0.349	0.263
HOP-62	0.885	0.989	0.965	0.972	0.468	0.405	0.188	0.197	1.08	0.725	0.788	0.625	0.694	0.572	0.418	0.25	1.06	0.984	0.47	0.176
NCI-H1944	0.964	0.701	0.844	0.626	0.336	0.241	0.188	0.172	0.357	0.304	0.346	0.33	0.201	0.171	0.122	0.136	0.731	0.598	0.271	0.204
NCI-H2023	0.575	0.44	0.469	0.294	0.417	0.327	0.258	0.139	0.3	–	0.218	0.226	0.448	0.389	0.193	0.131	0.778	0.133	0.122	0.0743
SK-LU-1	1.26	0.914	0.834	0.727	0.416	0.373	0.279	0.283	0.695	0.665	0.598	0.58	0.582	0.431	0.179	0.179	0.933	0.371	0.274	0.272
NCI-H661	1.16	–	1.04	0.97	0.44	0.368	0.329	0.368	0.333	–	0.416	0.294	0.276	0.269	0.252	0.236	0.471	0.518	0.276	0.286
NCI-H322M	0.786	0.707	0.668	0.322	0.481	0.494	0.423	0.427	0.456	0.499	0.347	0.365	0.65	0.486	0.414	0.387	0.548	0.272	0.32	0.335
LCLC-97TM1	0.44	–	0.376	0.487	0.199	0.201	0.106	0.0962	0.171	–	0.226	0.211	0.445	0.282	0.152	0.137	0.746	0.15	0.129	0.126
NCI-H2405	0.957	0.838	0.958	0.717	0.519	0.407	0.284	0.196	0.36	0.452	0.589	0.469	0.415	0.362	0.28	0.251	1.15	0.789	0.295	0.198
NCI-H647	1.2	1.09	1.26	0.811	0.395	0.363	0.126	0.131	0.445	0.359	0.499	0.46	0.525	0.305	0.145	0.0997	1.06	0.124	0.123	0.0895

Source: the supplement of paper PMC10307832
